One assay addresses T1, TsTPI (Taenia solium, UniProt Q9GTX8).
T1 construct: full length, codon-optimised synthetic gene, E. coli tpi-null strain, modified pET19; extra Gly-Pro-His before Met1; homodimer
As to the kind of experiment: X-ray crystal structure of the complex. The note with it: co-crystallised with 10 mM 2-PGA; active site, closed loop 6; 2.1 Å. In kind it is binding.

In another assay the target is T2, SmTPI (Schistosoma mansoni, UniProt P48501).
T2 construct: gene TPI; full length, codon-optimised synthetic gene, E. coli tpi-null strain, modified pET19; extra Gly-Pro-His before Met1; homodimer about 50 kDa
As to the kind of experiment: X-ray crystal structure of the complex. The note with it: co-crystallised with 10 mM 2-PGA; active site, closed loop 6; 2.3 Å; bound in all 8 monomers. In kind it is binding.

T2 sequence (P48501 whole entry): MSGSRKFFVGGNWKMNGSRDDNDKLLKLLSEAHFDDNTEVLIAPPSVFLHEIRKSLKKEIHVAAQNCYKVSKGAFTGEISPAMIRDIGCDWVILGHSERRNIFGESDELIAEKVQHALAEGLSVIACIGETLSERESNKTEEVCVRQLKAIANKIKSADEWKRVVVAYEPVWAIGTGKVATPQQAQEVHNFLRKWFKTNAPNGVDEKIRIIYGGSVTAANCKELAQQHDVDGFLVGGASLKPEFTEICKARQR
T1 sequence (Q9GTX8 whole entry): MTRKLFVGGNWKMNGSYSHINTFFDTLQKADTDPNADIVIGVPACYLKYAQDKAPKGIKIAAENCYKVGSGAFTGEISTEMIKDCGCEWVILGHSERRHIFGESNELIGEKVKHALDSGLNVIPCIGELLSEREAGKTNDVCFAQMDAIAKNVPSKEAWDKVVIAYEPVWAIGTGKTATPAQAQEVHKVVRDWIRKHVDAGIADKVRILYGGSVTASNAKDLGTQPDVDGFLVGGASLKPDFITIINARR

Take `O=C(O)[C@@H](CO)OP(=O)(O)O` [2-PGA, 2-phosphoglyceric acid]: the “X-ray crystal structure of the complex” value on TsTPI is “We solved the crystal structures of TsTPI and SmTPI in complex with the inhibitor 2-PGA”; at SmTPI, “We solved the crystal structures of TsTPI and SmTPI in complex with the inhibitor 2-PGA”.

The values above are taken from paper PMC6980832, “Crystal structures of Triosephosphate Isomerases from Taenia solium and Schistosoma mansoni provide insights for vaccine rationale and drug design against helminth parasites” (PLoS Neglected Tropical Diseases, 2020).
